Measured values as given in US6903132B2, “Non-peptide GnRH agents, pharmaceutical compositions and methods for their use” (Agouron Pharmaceuticals, Inc., priority 2002, dated 2005).

What was measured:
rat GnRH receptor = biological target: T1, rat GnRH receptor (Rattus norvegicus, UniProt P30969); assay: Radioligand binding assay: inhibition of binding of 125I-GnRH-A to GnRH receptors (membranes); conditions: competition with 125I-GnRH-A, Ki calculated from IC50 (Cheng et al.)
T1 construct: rat pituitaries (Pel Freez Biologicals, Rogers, Ark.) are homogenized in buffer A; tissue Pel Freez Biologicals; host or cells: rat pituitaries
T1 sequence (P30969 1-327): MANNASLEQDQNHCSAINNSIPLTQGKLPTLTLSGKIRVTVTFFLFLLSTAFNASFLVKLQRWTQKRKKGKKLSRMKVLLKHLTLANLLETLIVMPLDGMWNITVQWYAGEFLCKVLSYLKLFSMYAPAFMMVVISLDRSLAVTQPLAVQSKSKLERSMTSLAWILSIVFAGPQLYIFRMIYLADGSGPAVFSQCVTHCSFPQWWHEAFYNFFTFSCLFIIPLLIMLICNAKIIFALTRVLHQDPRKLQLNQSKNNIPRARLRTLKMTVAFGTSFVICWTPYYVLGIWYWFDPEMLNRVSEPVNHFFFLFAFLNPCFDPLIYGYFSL
Experimental: (§1) HEK 293 cells stably transfected with mouse or human GnRH receptors as described above are grown in Dulbecco's high-glucose, modified Eagle's medium (DMEM) supplemented with 0.2% G418, 10% fetal bovine serum (FBS) and 100U/mL penicillin/streptomycin. GH3 cells stably transfected with the rat GnRH receptor (GGH3) were provided by Dr. William Chin (Harvard Medical School, Boston, Mass.). These cells are extensively characterized previously (Kaiser et al., 1997). The cells are grown in low glucose DMEM containing: 100U/mL penicillin/streptomycin, 0.6% G418 and 10% heat-inactivated FBS.
(§2) HEK 293 cells containing mouse or human receptors, or rat pituitaries (Pel Freez Biologicals, Rogers, Ark.) are homogenized in buffer A containing: 50 mM Tris (pH 7.4), 0.32 M sucrose, 2 mM EGTA, 1 mM PMSF, 5 μg/ml aprotinen, 5 μg/ml Pepstatin A, and 1 μg/ml leupeptin. Homogenized cells are centrifuged at 4° C. at 20,000×g for 25 minutes, re-suspended in buffer A and re-centrifuged at 4° C. at 20,000×g for an additional 25 minutes. Total membrane protein was determined with a BCA kit (Pierce, Rockford, Ill.). Membranes are stored at −70° C. at a final membrane protein concentration of approximately 5 mg/ml.
(§3) The radioiodinated agonist analog of GnRH, [des-Gly^10, D-Ala^6]GnRH ethylamide (^125I-GnRH-A), is used as the radioligand. One μg of GnRH-A diluted in 0.5 M phosphate buffer (pH 7.4) is added to an lodogen®-coated borosilicate glass tube (Pierce, Rockford, Ill.) containing 35 μl of 0.05 M phosphate buffer (pH 7.4-7.6) and 1 mCi of Na[^125I]. The reaction mixture is vortexed and incubated for 1 minute at room temperature. After one minute, the mixture is vortexed and allowed to incubate for an additional minute. 2 ml of 0.5 M acetic acid/1% BSA is added to the reaction tube and the mixture is added to a C18 Sep-Pak cartridge. The cartridge is washed with subsequent washes of 5 ml H2O and 5 ml 0.5 M acetic acid and then eluted with 5×1 ml of 60%CH3CN/40% 0.5 M acetic acid. The eluate is diluted with 3× volume of HPLC buffer A (0.1% TFA in H2O) and loaded onto a C18 column. The iodinated product is eluted over 20-25 min with a gradient of 25-100% CH3CN containing 0.1% TFA. The radioactive fractions (750 μl/fraction) are collected into clean polypropylene tubes containing 100 μl of 10% BSA. Fractions are assessed for biological activity by radiolig and binding. Specific activity of the radioligand was approximately 2200 Ci/mmol.
(§4) Membranes are diluted to 0.01-0.5 mg/ml (depending upon the species of receptor) with assay buffer containing 50 mM HEPES (pH 7.4), 1 mM EDTA, 2.5 mM MgCl2, and 0.1% BSA. Membranes (diluted to utilize similar receptor numbers between assays) are incubated with approximately 0.04-0.06 nM ^125I-GnRH-A in the presence or absence of competing agents (0.1-10,000 nM) in a total volume of 200 μl in 96-well polypropylene plates for 1 hour at room temperature. Assays are stopped by rapid filtration onto 96-well GF/C filters soaked in 0.1% polyethylenimine (PEI) utilizing a Packard 96-well cell harvester. Filters are washed three times with ice-cold PBS (50 mM NaPO4, 0.9% NaCl, 2 mM MgCl2, and 0.02% NaN3, pH 7.4). 35 μl of scintillation cocktail is added to each filter well and filters are counted on a Packard Topcount. Control dose-response curves are generated to GnRH (0.1 nM-100 nM) in each competition binding experiment. Ki values were calculated from IC50 values according to Cheng et al., Biochemical Pharmacol. 22: 3099-3108, 1973. [formula]

human GnRH receptors = biological target: T2, human GnRH receptors (Homo sapiens, UniProt P30968); assay: as above; conditions: Human GnRH receptor; competition with 125I-GnRH-A; Ki calculated from IC50 (Cheng et al.)
T2 construct: expressed in transfected cells; host or cells: HEK 293
T2 sequence (P30968 1-328): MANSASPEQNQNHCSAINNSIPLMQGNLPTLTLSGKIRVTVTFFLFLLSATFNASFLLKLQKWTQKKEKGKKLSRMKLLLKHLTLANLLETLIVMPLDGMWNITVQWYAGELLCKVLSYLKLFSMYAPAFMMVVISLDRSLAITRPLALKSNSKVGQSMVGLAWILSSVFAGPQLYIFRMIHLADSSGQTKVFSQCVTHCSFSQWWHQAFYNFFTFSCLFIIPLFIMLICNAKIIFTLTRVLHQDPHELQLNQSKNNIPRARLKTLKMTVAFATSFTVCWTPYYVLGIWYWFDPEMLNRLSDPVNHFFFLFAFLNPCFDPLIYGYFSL
Experimental: as §1, §2, §3, §4

Ki (rat GnRH receptor) [nM] | Ki (human GnRH receptors) [nM] | Compound
19 | 7.2 | Cc1cc2c(cc1Oc1ccc(C(=O)NNc3ncnc4scc(C)c34)o1)C(C)(C)CC(C)C2(C)C (stereo not drawn) [Example I15, 5-(3,5,5,6,8,8-Hexamethyl-5,6,7,8-tetrahydro-naphthalen-2-yloxy)-furan-2-carboxylic acid N′-(5-methyl-thieno[2,3-d]pyrimidin-4-yI)-hydrazide]
17 | 1.6 | Cc1cc2c(cc1Cc1ccc(C(=O)NNc3cc(C)c4c(C)nn(C)c4n3)o1)C(C)(C)CCC2 [Example J26, 5-(3,8,8-Trimethyl-5,6,7,8-tetrahydro-naphthalen-2-ylmethyl)-furan-2-carboxylic acid N′-(1,3,4-trimethyl-1H-pyrazolo[3,4-b]pyridin-6-yl)-hydrazide]
100 | 130 | Cc1cc2c(cc1Oc1ccc(C(=O)NNc3ccc4ccccc4n3)o1)C(C)(C)OC2 [Example N3, 5-(3,3,6-Trimethyl-1,3-dihydro-isobenzofuran-5-yloxy)-furan-2-carboxylic acid N′-quinolin-2-yl-hydrazide]
18 | 9 | Cc1ccc(N(C)NC(=O)c2ccc(Oc3cc4c(cc3C)C(C)(C)C(C)CC4(C)C)o2)nn1 (stereo not drawn) [Example I16, 5-(3,5,5,6,8,8-Hexamethyl-5,6,7,8-etrahydro-naphthalen-2-yloxy)-furan-2-carboxylic acid N′-methyl-N′-(6-methyl-pyridazin-3-yl)-hydrazide]
29 | 19 | Cc1cc2c(cc1Oc1ccc(C(=O)NNc3ccc(C(F)(F)F)cn3)o1)C(C)(C)C(C)C2(C)C (stereo not drawn) [Example M2, 5-(1,1,2,3,3,6-Hexamethyl-indan-5-yloxy)-furan-2-carboxylic acid N′-(5-trifluoromethyl-pyridin-2-yl)-hydrazide]
11 | 23 | Cc1cc2c(cc1Oc1ccc(C(=O)NNc3ncc(C(F)(F)F)cc3Cl)o1)C(C)(C)C(C)C2(C)C (stereo not drawn) [Example M1, 5-(1,1,2,3,3,6-Hexamethyl-indan-5-yloxy)-furan-2-carboxylic acid N′-(chloro-trifluoromethyl-pyridin-2-yl)-hydrazide]
2.9 | 4.1 | Cc1cc2c(cc1Oc1ccc(C(=O)NNc3ccc4ccccc4n3)o1)C(C)(C)C(C)C2(C)C (stereo not drawn) [Example M3, 5-(1,1,2,3,3,6-Hexamethyl-indan-5-yloxy)-furan-2-carboxylic acid N′-quinolin-2-yl-hydrazide]
23 | 24 | Cc1cc2c(cc1Cc1ccc(C(=O)NNc3ccc4ccccc4n3)o1)C(C)(C)OC2(C)C [Example E4, 5-(1,1,3,3,6-Pentamethyl-1,3-dihydro-isobenzofuran-5-ylmethyl)-furan-2-carboxylic acid N′-quinolin-2-yl-hydrazide]
– | > 10000 | CCC(C)(C)c1ccc(OC)c(Cc2ccc(C(=O)NNc3cc(C)c4c(C)nn(C)c4n3)o2)c1 [Example J13, 5-[2-Methoxy-5-(tert-pentyl)benzyl]-N′-(1,3,4-trimethyl-1H-pyrazolo[3,4-b]pyridin-6-yl)-2-furohydrazide]
– | 1410 | CCN(CC)C(=O)C1(c2ccc(C)c(Cc3ccc(C(=O)NNc4cc(C)c5c(C)nn(C)c5n4)o3)c2)CC1 [Example J20, N,N-diethyl-1-{4-methyl-3-[(5-{[2-(1,3,4-trimethyl-1H-pyrazolo[3,4-b]pyridin-6-yl)hydrazino]carbonyl}-2-furyl)methyl]phenyl} cyclopropanecarboxamide]
– | 1690 | COc1cc(OC)c(Cc2ccc(C(=O)NNc3cc(C)c4c(C)nn(C)c4n3)o2)c(OC)c1 [Example J10, 5-(2,4,6-trimethoxybenzyl)-N-(1,3,4-trimethyl-1H-pyrazolo[3,4-b]pyridin-6-yl)-2-furohydrazide]
– | 300 | Cc1cc(NNC(=O)c2ccc(Cc3cc4c(cc3C(C)C)C(C)(C)CCC4(C)C)o2)nc2c1c(C)nn2C [Example C3, 5-[(3-lsopropyl-5,5,8,8-tetramethyl-5,6,7,8-tetrahydro-2-naphthalenyl)methyl]-N′-(1,3,4-trimethyl-1H-pyrazolo[3,4-b]pyridin-6-yl)-2-furohydrazide]
– | 1140 | Cc1cc2c(cc1Oc1ccc(C(=O)NNc3ncc(C(F)(F)F)cc3Cl)o1)C(C)(C)OC2 [Example N1, 5-(3,3,6-Trimethyl-1,3-dihydro-isobenzofuran-5-yloxy)-furan-2-carboxylic acid N′-(chloro-trifluoromethyl-pyridin-2-yl)-hydrazide]
– | 630 | CC(=O)N(C)c1ccc(C)c(Oc2ccc(C(=O)NNc3cc(C)c4c(C)nn(C)c4n3)o2)c1 [Example I30, N-Methyl-N-(4-methyl-3-{5-[N′-(1,3,4-trimethyl-1H-pyrazolo[3,4-b]pyridin-6-yl)-hydrazinocarbonyl]-furan-2-yloxy}-phenyl)-acetamide]
– | 390 | Cc1cc2c(cc1Cc1ccc(C(=O)NNc3ccc(C(F)(F)F)cn3)o1)C(C)(C)OC2(C)C [Example E5, 5-(1,1,3,3,6-Pentamethyl-1,3-dihydro-isobenzofuran-5-ylmethyl)-furan-2-carboxylic acid N′-(5-trifluoromethyl-pyridin-2-yl)-hydrazide]
– | 410 | Cc1cc2c(cc1Cc1ccc(C(=O)NNc3c(Cl)cncc3Cl)o1)C(C)(C)CCC2(C)C [Example C8, N′-(3,5-dichloro-4-pyridinyl)-5-[(3,5,5,8,8-pentamethyl-5,6,7,8-tetrahydro-2-naphthalenyl)methyl]-2-furohydrazide]
91 | 840 | Cc1cc2c(cc1Cc1ccc(C(=O)NNc3ncc(C(F)(F)F)cc3Cl)o1)C(C)(C)OC2(C)C [Example E3, N′-[3-chloro-5-(trifluoromethyl)pyridin-2-yl]-5-[(1,1,3,3,6-pentamethyl-1,3-dihydro-2-benzofuran-5-yl)methyl]-2-furohydrazide]
– | ≥ 10000 | Cc1cc(O)ccc1Cc1ccc(C(=O)NNc2cc(C)c3c(C)nn(C)c3n2)o1 [Example J21, 5-(4-Hydroxy-2-methylbenzyl)-N′-(1,3,4-trimethyl-1H-pyrazolo[3,4-b]pyridin-6-yl)-2-furohydrazide]
